Data taken from ChEMBL document CHEMBL3091428, “Synthesis and initial biological evaluation of substituted 1-phenylamino-2-thio-4,5-dimethyl-1H-imidazole derivatives” (Bioorg Med Chem Lett, 2013).
≈ marks a conversion by molar mass, not a printed value.

How the values were obtained:
Format in all cases: functional
Pichia kudriavzevii = test: Antimicrobial activity against Candida krusei ATCC 6258 after 24 hrs by broth microdilution method; conditions: ATCC 6258, 24 h
Nakaseomyces glabratus = test: Antimicrobial activity against Candida glabrata ATCC 90030 after 24 hrs by broth microdilution method; conditions: ATCC 90030, 24 h
Listeria monocytogenes = test: Antimicrobial activity against Listeria monocytogenes ATCC 19115 after 24 hrs by broth microdilution method; conditions: ATCC 19115, 24 h
Candida albicans = test: Antimicrobial activity against Candida albicans ATCC 90028 after 24 hrs by broth microdilution method; conditions: ATCC 90028, 24 h
Staphylococcus aureus = test: Antimicrobial activity against Staphylococcus aureus ATCC 25923 after 24 hrs by broth microdilution method; conditions: ATCC 25923, 24 h
Enterococcus faecalis [1] = test: Antimicrobial activity against Enterococcus faecalis ATCC 51299 after 24 hrs by broth microdilution method; conditions: ATCC 51299, 24 h
Enterococcus faecalis [2] = test: Antimicrobial activity against Enterococcus faecalis ATCC 29212 after 24 hrs by broth microdilution method; conditions: ATCC 29212, 24 h
Pseudomonas aeruginosa = test: Antimicrobial activity against Pseudomonas aeruginosa ATCC 27853 after 24 hrs by broth microdilution method; conditions: ATCC 27853, 24 h
Klebsiella pneumoniae = test: Antimicrobial activity against Klebsiella pneumoniae ATCC 13883 after 24 hrs by broth microdilution method; conditions: ATCC 13883, 24 h
Escherichia coli [3] = test: Antimicrobial activity against Escherichia coli ATCC 25922 after 24 hrs by broth microdilution method; conditions: ATCC 25922, 24 h
Escherichia coli [4] = test: Antimicrobial activity against Escherichia coli ATCC 35218 after 24 hrs by broth microdilution method; conditions: ATCC 35218, 24 h

Structure (SMILES)	MIC (Pichia kudriavzevii)	MIC (Nakaseomyces glabratus)	MIC (Listeria monocytogenes)	MIC (Candida albicans)	MIC (Staphylococcus aureus)	MIC (Enterococcus faecalis [1])	MIC (Enterococcus faecalis [2])	MIC (Pseudomonas aeruginosa)	MIC (Klebsiella pneumoniae)	MIC (Escherichia coli [3])	MIC (Escherichia coli [4])
COc1ccc(C(=O)CSc2nc(C)c(C)n2Nc2ccc(Cl)cc2)cc1OC	400 µg/mL (≈ 926 µM)	400 µg/mL (≈ 926 µM)	100 µg/mL (≈ 232 µM)	400 µg/mL (≈ 926 µM)	800 µg/mL (≈ 1850 µM)	800 µg/mL (≈ 1850 µM)	100 µg/mL (≈ 232 µM)	400 µg/mL (≈ 926 µM)	800 µg/mL (≈ 1850 µM)	400 µg/mL (≈ 926 µM)	800 µg/mL (≈ 1850 µM)
COc1ccc(C(=O)CSc2nc(C)c(C)n2Nc2ccccc2)cc1OC	50 µg/mL (≈ 126 µM)	800 µg/mL (≈ 2010 µM)	400 µg/mL (≈ 1010 µM)	200 µg/mL (≈ 503 µM)	200 µg/mL (≈ 503 µM)	800 µg/mL (≈ 2010 µM)	400 µg/mL (≈ 1010 µM)	400 µg/mL (≈ 1010 µM)	400 µg/mL (≈ 1010 µM)	800 µg/mL (≈ 2010 µM)	200 µg/mL (≈ 503 µM)
Cc1nc(SCC(=O)c2cccc(F)c2)n(Nc2ccccc2)c1C	200 µg/mL (≈ 563 µM)	400 µg/mL (≈ 1130 µM)	400 µg/mL (≈ 1130 µM)	400 µg/mL (≈ 1130 µM)	400 µg/mL (≈ 1130 µM)	400 µg/mL (≈ 1130 µM)	400 µg/mL (≈ 1130 µM)	400 µg/mL (≈ 1130 µM)	400 µg/mL (≈ 1130 µM)	800 µg/mL (≈ 2250 µM)	400 µg/mL (≈ 1130 µM)
COc1cccc(C(=O)CSc2nc(C)c(C)n2Nc2ccc(C)cc2)c1	200 µg/mL (≈ 524 µM)	400 µg/mL (≈ 1050 µM)	400 µg/mL (≈ 1050 µM)	400 µg/mL (≈ 1050 µM)	800 µg/mL (≈ 2100 µM)	400 µg/mL (≈ 1050 µM)	800 µg/mL (≈ 2100 µM)	800 µg/mL (≈ 2100 µM)	800 µg/mL (≈ 2100 µM)	800 µg/mL (≈ 2100 µM)	200 µg/mL (≈ 524 µM)
COc1ccc(C(=O)CSc2nc(C)c(C)n2Nc2ccc(OO)cc2)cc1	400 µg/mL (≈ 1000 µM)	800 µg/mL (≈ 2000 µM)	800 µg/mL (≈ 2000 µM)	400 µg/mL (≈ 1000 µM)	800 µg/mL (≈ 2000 µM)	800 µg/mL (≈ 2000 µM)	800 µg/mL (≈ 2000 µM)	800 µg/mL (≈ 2000 µM)	800 µg/mL (≈ 2000 µM)	800 µg/mL (≈ 2000 µM)	800 µg/mL (≈ 2000 µM)
Cc1ccc(Nn2c(SCC(=O)c3ccc(Cl)cc3)nc(C)c2C)cc1	200 µg/mL (≈ 518 µM)	400 µg/mL (≈ 1040 µM)	800 µg/mL (≈ 2070 µM)	400 µg/mL (≈ 1040 µM)	800 µg/mL (≈ 2070 µM)	400 µg/mL (≈ 1040 µM)	400 µg/mL (≈ 1040 µM)	800 µg/mL (≈ 2070 µM)	800 µg/mL (≈ 2070 µM)	400 µg/mL (≈ 1040 µM)	800 µg/mL (≈ 2070 µM)
Cc1ccc(Nn2c(SCC(=O)c3cccc(F)c3)nc(C)c2C)cc1	400 µg/mL (≈ 1080 µM)	800 µg/mL (≈ 2170 µM)	400 µg/mL (≈ 1080 µM)	800 µg/mL (≈ 2170 µM)	800 µg/mL (≈ 2170 µM)	400 µg/mL (≈ 1080 µM)	200 µg/mL (≈ 541 µM)	400 µg/mL (≈ 1080 µM)	400 µg/mL (≈ 1080 µM)	800 µg/mL (≈ 2170 µM)	800 µg/mL (≈ 2170 µM)
Cc1nc(SCC(=O)c2ccc(Cl)c(Cl)c2)n(Nc2ccc(Cl)cc2)c1C	400 µg/mL (≈ 907 µM)	400 µg/mL (≈ 907 µM)	200 µg/mL (≈ 454 µM)	800 µg/mL (≈ 1810 µM)	800 µg/mL (≈ 1810 µM)	800 µg/mL (≈ 1810 µM)	50 µg/mL (≈ 113 µM)	400 µg/mL (≈ 907 µM)	800 µg/mL (≈ 1810 µM)	800 µg/mL (≈ 1810 µM)	200 µg/mL (≈ 454 µM)
Cc1ccc(Nn2c(SCC(=O)c3ccc(F)cc3)nc(C)c2C)cc1	1600 µg/mL (≈ 4330 µM)	1600 µg/mL (≈ 4330 µM)	1600 µg/mL (≈ 4330 µM)	1600 µg/mL (≈ 4330 µM)	1600 µg/mL (≈ 4330 µM)	1600 µg/mL (≈ 4330 µM)	1600 µg/mL (≈ 4330 µM)	1600 µg/mL (≈ 4330 µM)	1600 µg/mL (≈ 4330 µM)	1600 µg/mL (≈ 4330 µM)	1600 µg/mL (≈ 4330 µM)
COc1cccc(C(=O)CSc2nc(C)c(C)n2Nc2ccc(Cl)cc2)c1	200 µg/mL (≈ 498 µM)	800 µg/mL (≈ 1990 µM)	1600 µg/mL (≈ 3980 µM)	800 µg/mL (≈ 1990 µM)	800 µg/mL (≈ 1990 µM)	400 µg/mL (≈ 995 µM)	200 µg/mL (≈ 498 µM)	800 µg/mL (≈ 1990 µM)	400 µg/mL (≈ 995 µM)	800 µg/mL (≈ 1990 µM)	800 µg/mL (≈ 1990 µM)
Cc1nc(SCC(=O)c2ccc(F)cc2)n(Nc2ccc(Cl)cc2)c1C	800 µg/mL (≈ 2050 µM)	1600 µg/mL (≈ 4100 µM)	3200 µg/mL (≈ 8210 µM)	800 µg/mL (≈ 2050 µM)	800 µg/mL (≈ 2050 µM)	800 µg/mL (≈ 2050 µM)	1600 µg/mL (≈ 4100 µM)	1600 µg/mL (≈ 4100 µM)	800 µg/mL (≈ 2050 µM)	1600 µg/mL (≈ 4100 µM)	1600 µg/mL (≈ 4100 µM)
Cc1ccc(Nn2c(SCC(=O)c3ccc(Cl)c(Cl)c3)nc(C)c2C)cc1	800 µg/mL (≈ 1900 µM)	800 µg/mL (≈ 1900 µM)	800 µg/mL (≈ 1900 µM)	800 µg/mL (≈ 1900 µM)	800 µg/mL (≈ 1900 µM)	400 µg/mL (≈ 952 µM)	400 µg/mL (≈ 952 µM)	800 µg/mL (≈ 1900 µM)	800 µg/mL (≈ 1900 µM)	400 µg/mL (≈ 952 µM)	800 µg/mL (≈ 1900 µM)
Cc1ccc(Nn2c(SCC(=O)c3cccc(Cl)c3)nc(C)c2C)cc1	800 µg/mL (≈ 2070 µM)	800 µg/mL (≈ 2070 µM)	800 µg/mL (≈ 2070 µM)	800 µg/mL (≈ 2070 µM)	800 µg/mL (≈ 2070 µM)	800 µg/mL (≈ 2070 µM)	800 µg/mL (≈ 2070 µM)	800 µg/mL (≈ 2070 µM)	800 µg/mL (≈ 2070 µM)	800 µg/mL (≈ 2070 µM)	800 µg/mL (≈ 2070 µM)
CC(=O)N1CCN(c2ccc(OCC3COC(Cn4ccnc4)(c4ccc(Cl)cc4Cl)O3)cc2)CC1 (stereo unspecified) [KETOCONAZOLE]	50 µg/mL (≈ 94.1 µM)	100 µg/mL (≈ 188 µM)	–	100 µg/mL (≈ 188 µM)	–	–	–	–	–	–	–
